Laboratory results published in ChEMBL document CHEMBL1201861, “Genomics of Drug Sensitity in Cancer screening data, Wellcome Trust Sanger Institute”.

Legend:
Assay in all cases: cells
SK-N-DZ = assay type: functional, cell-based, Homo sapiens; details: Homo sapiens, SK-N-DZ
Description: SANGER: Inhibition of human SK-N-DZ cell growth in a cell viability assay.

JVM-3 = assay type: functional, cell-based, Homo sapiens; details: Homo sapiens, JVM-3
Description: SANGER: Inhibition of human JVM-3 cell growth in a cell viability assay.

IST-MEL1 = assay type: functional, cell-based, Homo sapiens; details: Homo sapiens, IST-MEL1
Description: SANGER: Inhibition of human IST-MEL1 cell growth in a cell viability assay.

NKM-1 = assay type: functional, cell-based, Homo sapiens; details: Homo sapiens, NKM-1
Description: SANGER: Inhibition of human NKM-1 cell growth in a cell viability assay.

IA-LM = assay type: functional, cell-based, Homo sapiens; details: Homo sapiens, IA-LM
Description: SANGER: Inhibition of human IA-LM cell growth in a cell viability assay.

SK-UT-1 = assay type: functional, cell-based, Homo sapiens; details: Homo sapiens, SK-UT-1
Description: SANGER: Inhibition of human SK-UT-1 cell growth in a cell viability assay.

ES3 = assay type: functional, cell-based, Homo sapiens; details: Homo sapiens, ES3
Description: SANGER: Inhibition of human ES3 cell growth in a cell viability assay.

NCI-H23 = assay type: functional, cell-based, Homo sapiens; details: Homo sapiens, NCI-H23
Description: SANGER: Inhibition of human NCI-H23 cell growth in a cell viability assay.

NCI-N87 = assay type: functional, cell-based, Homo sapiens; details: Homo sapiens, NCI-N87
Description: SANGER: Inhibition of human NCI-N87 cell growth in a cell viability assay.

A4-Fuk = assay type: functional, cell-based, Homo sapiens; details: Homo sapiens, A4-Fuk
Description: SANGER: Inhibition of human A4-Fuk cell growth in a cell viability assay.

LNCaP-Clone-FGC = assay type: functional, cell-based, Homo sapiens; details: Homo sapiens, LNCaP-Clone-FGC
Description: SANGER: Inhibition of human LNCaP-Clone-FGC cell growth in a cell viability assay.

ACN = assay type: functional, cell-based, Homo sapiens; details: Homo sapiens, ACN
Description: SANGER: Inhibition of human ACN cell growth in a cell viability assay.

HEL = assay type: functional, cell-based, Homo sapiens; details: Homo sapiens, HEL
Description: SANGER: Inhibition of human HEL cell growth in a cell viability assay.

TE-12 = assay type: functional, cell-based, Homo sapiens; details: Homo sapiens, TE-12
Description: SANGER: Inhibition of human TE-12 cell growth in a cell viability assay.

CCRF-CEM = assay type: functional, cell-based, Homo sapiens; details: Homo sapiens, CCRF-CEM
Description: SANGER: Inhibition of human CCRF-CEM cell growth in a cell viability assay.

SH-4 = assay type: functional, cell-based, Homo sapiens; details: Homo sapiens, SH-4
Description: SANGER: Inhibition of human SH-4 cell growth in a cell viability assay.

MEG-01 = assay type: functional, cell-based, Homo sapiens; details: Homo sapiens, MEG-01
Description: SANGER: Inhibition of human MEG-01 cell growth in a cell viability assay.

HCC2218 = assay type: functional, cell-based, Homo sapiens; details: Homo sapiens, HCC2218
Description: SANGER: Inhibition of human HCC2218 cell growth in a cell viability assay.

EW-11 = assay type: functional, cell-based, Homo sapiens; details: Homo sapiens, EW-11
Description: SANGER: Inhibition of human EW-11 cell growth in a cell viability assay.

TE-1 = assay type: functional, cell-based, Homo sapiens; details: Homo sapiens, TE-1
Description: SANGER: Inhibition of human TE-1 cell growth in a cell viability assay.

GR-ST = assay type: functional, cell-based, Homo sapiens; details: Homo sapiens, GR-ST
Description: SANGER: Inhibition of human GR-ST cell growth in a cell viability assay.

MC116 = assay type: functional, cell-based, Homo sapiens; details: Homo sapiens, MC116
Description: SANGER: Inhibition of human MC116 cell growth in a cell viability assay.

D283 Med = assay type: functional, cell-based, Homo sapiens; details: Homo sapiens, D283 Med
Description: SANGER: Inhibition of human D-283MED cell growth in a cell viability assay.

SK-N-FI = assay type: functional, cell-based, Homo sapiens; details: Homo sapiens, SK-N-FI
Description: SANGER: Inhibition of human SK-N-FI cell growth in a cell viability assay.

HCE-T = assay type: functional, cell-based, Homo sapiens; details: Homo sapiens, HCE-T
Description: SANGER: Inhibition of human HCE-T cell growth in a cell viability assay.

DSH1 = assay type: functional, cell-based, Homo sapiens; details: Homo sapiens, DSH1
Description: SANGER: Inhibition of human DSH1 cell growth in a cell viability assay.

KM12 = assay type: functional, cell-based, Homo sapiens; details: Homo sapiens, KM12
Description: SANGER: Inhibition of human KM12 cell growth in a cell viability assay.

CP66-MEL = assay type: functional, cell-based, Homo sapiens; details: Homo sapiens, CP66-MEL
Description: SANGER: Inhibition of human CP66-MEL cell growth in a cell viability assay.

BE-13 = assay type: functional, cell-based, Homo sapiens; details: Homo sapiens, BE-13
Description: SANGER: Inhibition of human BE-13 cell growth in a cell viability assay.

U-87 MG = assay type: functional, cell-based, Homo sapiens, U-87MG ATCC; details: Homo sapiens, U-87 MG
Description: SANGER: Inhibition of human U-87-MG cell growth in a cell viability assay.

A388 = assay type: functional, cell-based, Homo sapiens; details: Homo sapiens, A388
Description: SANGER: Inhibition of human A388 cell growth in a cell viability assay.

NOMO-1 = assay type: functional, cell-based, Homo sapiens; details: Homo sapiens, NOMO-1
Description: SANGER: Inhibition of human NOMO-1 cell growth in a cell viability assay.

COLO-668 = assay type: functional, cell-based, Homo sapiens; details: Homo sapiens, COLO-668
Description: SANGER: Inhibition of human COLO-668 cell growth in a cell viability assay.

LU-134-A = assay type: functional, cell-based, Homo sapiens; details: Homo sapiens, LU-134-A
Description: SANGER: Inhibition of human LU-134-A cell growth in a cell viability assay.

EW-3 = assay type: functional, cell-based, Homo sapiens; details: Homo sapiens, EW-3
Description: SANGER: Inhibition of human EW-3 cell growth in a cell viability assay.

NCI-H747 = assay type: functional, cell-based, Homo sapiens; details: Homo sapiens, NCI-H747
Description: SANGER: Inhibition of human NCI-H747 cell growth in a cell viability assay.

ES8 = assay type: functional, cell-based, Homo sapiens; details: Homo sapiens, ES8
Description: SANGER: Inhibition of human ES8 cell growth in a cell viability assay.

SK-MEL-2 = assay type: functional, cell-based, Homo sapiens; details: Homo sapiens, SK-MEL-2
Description: SANGER: Inhibition of human SK-MEL-2 cell growth in a cell viability assay.

U-266 = assay type: functional, cell-based, Homo sapiens; details: Homo sapiens, U-266
Description: SANGER: Inhibition of human U-266 cell growth in a cell viability assay.

LC-2-ad = assay type: functional, cell-based, Homo sapiens; details: Homo sapiens, LC-2-ad
Description: SANGER: Inhibition of human LC-2-ad cell growth in a cell viability assay.

A498 = assay type: functional, cell-based, Homo sapiens; details: Homo sapiens, A498
Description: SANGER: Inhibition of human A498 cell growth in a cell viability assay.

RH-1 = assay type: functional, cell-based, Homo sapiens; details: Homo sapiens, RH-1
Description: SANGER: Inhibition of human RH-1 cell growth in a cell viability assay.

KARPAS-45 = assay type: functional, cell-based, Homo sapiens; details: Homo sapiens, KARPAS-45
Description: SANGER: Inhibition of human KARPAS-45 cell growth in a cell viability assay.

KNS-81-FD = assay type: functional, cell-based, Homo sapiens; details: Homo sapiens, KNS-81-FD
Description: SANGER: Inhibition of human KNS-81-FD cell growth in a cell viability assay.

GB-1 = assay type: functional, cell-based, Homo sapiens; details: Homo sapiens, GB-1
Description: SANGER: Inhibition of human GB-1 cell growth in a cell viability assay.

SW 954 = assay type: functional, cell-based, Homo sapiens; details: Homo sapiens, SW 954
Description: SANGER: Inhibition of human SW954 cell growth in a cell viability assay.

NCI-H526 = assay type: functional, cell-based, Homo sapiens; details: Homo sapiens, NCI-H526
Description: SANGER: Inhibition of human NCI-H526 cell growth in a cell viability assay.

SHP77 = assay type: functional, cell-based, Homo sapiens, SHP-77; details: Homo sapiens, SHP77
Description: SANGER: Inhibition of human SHP-77 cell growth in a cell viability assay.

EW-24 = assay type: functional, cell-based, Homo sapiens; details: Homo sapiens, EW-24
Description: SANGER: Inhibition of human EW-24 cell growth in a cell viability assay.

## O=C(O)c1ccc(-c2c[nH]c3ncc(-c4ccccc4)cc23)cc1C1CCCC1 [GSK-650394]
SK-N-DZ
  IC50: > 16 µM
JVM-3
  IC50: > 16 µM
IST-MEL1
  IC50: > 16 µM
NKM-1
  IC50: 2.77 µM
IA-LM
  IC50: 4.12 µM
SK-UT-1
  IC50: 11.8 µM
ES3
  IC50: > 16 µM
NCI-H23
  IC50: > 16 µM
NCI-N87
  IC50: > 16 µM
A4-Fuk
  IC50: 14.9 µM
LNCaP-Clone-FGC
  IC50: > 16 µM
ACN
  IC50: > 16 µM
HEL
  IC50: 10.7 µM
TE-12
  IC50: 1.99 µM
CCRF-CEM
  IC50: > 16 µM
SH-4
  IC50: > 16 µM
MEG-01
  IC50: 5.26 µM
HCC2218
  IC50: > 16 µM
EW-11
  IC50: > 16 µM
TE-1
  IC50: > 16 µM
GR-ST
  IC50: > 16 µM
MC116
  IC50: > 16 µM
D283 Med
  IC50: > 16 µM
SK-N-FI
  IC50: > 16 µM
HCE-T
  IC50: > 16 µM
DSH1
  IC50: > 16 µM
KM12
  IC50: 0.851 µM
CP66-MEL
  IC50: > 16 µM
BE-13
  IC50: > 16 µM
U-87 MG
  IC50: > 16 µM
A388
  IC50: 7.6 µM
NOMO-1
  IC50: > 16 µM
COLO-668
  IC50: > 16 µM
LU-134-A
  IC50: 6.55 µM
EW-3
  IC50: > 16 µM
NCI-H747
  IC50: > 16 µM
ES8
  IC50: 7.13 µM
SK-MEL-2
  IC50: > 16 µM
U-266
  IC50: > 16 µM
LC-2-ad
  IC50: > 16 µM
A498
  IC50: > 16 µM
RH-1
  IC50: 7.73 µM
KARPAS-45
  IC50: > 16 µM
KNS-81-FD
  IC50: > 16 µM
GB-1
  IC50: 5.96 µM
SW 954
  IC50: 4.46 µM
NCI-H526
  IC50: 6.04 µM
SHP77
  IC50: > 16 µM
EW-24
  IC50: > 16 µM

## Nc1cccc2c1CN(C1CCC(=O)NC1=O)C2=O (configuration not stated) [LENALIDOMIDE]
SK-N-DZ
  IC50: > 5 µM
JVM-3
  IC50: > 5 µM
IST-MEL1
  IC50: > 5 µM
NKM-1
  IC50: > 5 µM
IA-LM
  IC50: > 5 µM
SK-UT-1
  IC50: > 5 µM
ES3
  IC50: > 5 µM
NCI-H23
  IC50: > 5 µM
NCI-N87
  IC50: > 5 µM
A4-Fuk
  IC50: > 5 µM
LNCaP-Clone-FGC
  IC50: > 5 µM
ACN
  IC50: > 5 µM
HEL
  IC50: > 5 µM
TE-12
  IC50: > 5 µM
CCRF-CEM
  IC50: > 5 µM
SH-4
  IC50: > 5 µM
MEG-01
  IC50: > 5 µM
HCC2218
  IC50: > 5 µM
EW-11
  IC50: > 5 µM
TE-1
  IC50: > 5 µM
GR-ST
  IC50: > 5 µM
MC116
  IC50: > 5 µM
D283 Med
  IC50: > 5 µM
SK-N-FI
  IC50: > 5 µM
HCE-T
  IC50: > 5 µM
DSH1
  IC50: > 5 µM
KM12
  IC50: > 5 µM
CP66-MEL
  IC50: > 5 µM
BE-13
  IC50: > 5 µM
U-87 MG
  IC50: > 5 µM
A388
  IC50: > 5 µM
NOMO-1
  IC50: > 5 µM
COLO-668
  IC50: > 5 µM
LU-134-A
  IC50: > 5 µM
EW-3
  IC50: > 5 µM
NCI-H747
  IC50: > 5 µM
ES8
  IC50: > 5 µM
SK-MEL-2
  IC50: > 5 µM
U-266
  IC50: > 5 µM
LC-2-ad
  IC50: > 5 µM
A498
  IC50: > 5 µM
RH-1
  IC50: > 5 µM
KARPAS-45
  IC50: > 5 µM
KNS-81-FD
  IC50: > 5 µM
GB-1
  IC50: > 5 µM
SW 954
  IC50: > 5 µM
NCI-H526
  IC50: > 5 µM
SHP77
  IC50: > 5 µM
EW-24
  IC50: > 5 µM

## Cc1cn(-c2cc(NC(=O)c3ccc(C)c(Nc4nccc(-c5cccnc5)n4)c3)cc(C(F)(F)F)c2)cn1 [NILOTINIB]
SK-N-DZ
  IC50: > 2 µM
JVM-3
  IC50: > 2 µM
IST-MEL1
  IC50: > 2 µM
NKM-1
  IC50: 0.901 µM
IA-LM
  IC50: > 2 µM
SK-UT-1
  IC50: > 2 µM
ES3
  IC50: > 2 µM
NCI-H23
  IC50: > 2 µM
NCI-N87
  IC50: > 2 µM
A4-Fuk
  IC50: > 2 µM
LNCaP-Clone-FGC
  IC50: > 2 µM
ACN
  IC50: 1.55 µM
HEL
  IC50: > 2 µM
TE-12
  IC50: > 2 µM
CCRF-CEM
  IC50: > 2 µM
SH-4
  IC50: > 2 µM
MEG-01
  IC50: 0.00828 µM
HCC2218
  IC50: > 2 µM
EW-11
  IC50: > 2 µM
TE-1
  IC50: > 2 µM
GR-ST
  IC50: > 2 µM
MC116
  IC50: > 2 µM
D283 Med
  IC50: > 2 µM
SK-N-FI
  IC50: > 2 µM
HCE-T
  IC50: > 2 µM
DSH1
  IC50: > 2 µM
KM12
  IC50: > 2 µM
CP66-MEL
  IC50: > 2 µM
BE-13
  IC50: 1.27 µM
U-87 MG
  IC50: > 2 µM
A388
  IC50: > 2 µM
NOMO-1
  IC50: > 2 µM
COLO-668
  IC50: > 2 µM
LU-134-A
  IC50: > 2 µM
EW-3
  IC50: > 2 µM
NCI-H747
  IC50: > 2 µM
ES8
  IC50: > 2 µM
SK-MEL-2
  IC50: > 2 µM
U-266
  IC50: > 2 µM
LC-2-ad
  IC50: > 2 µM
A498
  IC50: > 2 µM
RH-1
  IC50: > 2 µM
KARPAS-45
  IC50: > 2 µM
KNS-81-FD
  IC50: > 2 µM
GB-1
  IC50: > 2 µM
SW 954
  IC50: > 2 µM
NCI-H526
  IC50: > 2 µM
SHP77
  IC50: > 2 µM
EW-24
  IC50: > 2 µM
